Laboratory results reported in US20250145665A1, “MACROCYCLIC PEPTIDES USEFUL AS MODULATORS OF TNF ALPHA” (Bristol-Myers Squibb Company, priority 2023, published 2025).
Like-named read-outs stand apart in the source and are kept apart here. Starred links: 1 amine or outer side, 2 acyl side, 3 side chain; linkers in the order of their positions; H or OH if unused. Positions of bridges follow the written chain, without caps; N, C: chain ends. Non-standard residues stand in square brackets, D forms with d. Residues, ends and D or L forms follow the SMILES beside them. *: point of attachment. X84 = O=C(Oc1cccc(-c2ccc(C[C@H](N[*:1])C(=O)[*:2])cc2)c1)c1csc(-c2ccncc2)n1; Bip(4'-NHBz) = N[C@@H](Cc1ccc(-c2ccc(NC(=O)c3ccccc3)cc2)cc1)C(=O)O; Bip(4'-NH) = O=C([C@H](Cc1ccc(-c2ccc(N[*:3])cc2)cc1)N[*:1])[*:2]; Indazole3carbonyl(1-CH2COOH) = O=C(O)Cn1nc(C(=O)*)c2ccccc21; X54 = N=C(NCCC[C@@H](N[*:1])C(=O)[*:2])NCc1cccc(-n2ccnc2)c1; Bip(4'-COOH) = N[C@@H](Cc1ccc(-c2ccc(C(=O)O)cc2)cc1)C(=O)O; Bip(4'-NHAc) = CC(=O)Nc1ccc(-c2ccc(C[C@H](N)C(=O)O)cc2)cc1; X35 = N=C(NCCC[C@@H](N[*:1])C(=O)[*:2])NCCc1ccc(N)cc1; Ala(morpholin-4-yl) = N[C@@H](CN1CCOCC1)C(=O)O; Phe(3-CONH2) = NC(=O)c1cccc(C[C@H](N)C(=O)O)c1; Bip = N[C@@H](Cc1ccc(-c2ccccc2)cc1)C(=O)O; Tiq1c(1S) = O=C(O)[C@H]1NCCc2ccccc21; 2Pal = N[C@@H](Cc1ccccn1)C(=O)O; 3Pal = N[C@@H](Cc1cccnc1)C(=O)O; Cha = N[C@@H](CC1CCCCC1)C(=O)O; Sar = CNCC(=O)O

Target: TNFα (Homo sapiens, UniProt P01375)
Sequence (P01375 77-233 limits assumed): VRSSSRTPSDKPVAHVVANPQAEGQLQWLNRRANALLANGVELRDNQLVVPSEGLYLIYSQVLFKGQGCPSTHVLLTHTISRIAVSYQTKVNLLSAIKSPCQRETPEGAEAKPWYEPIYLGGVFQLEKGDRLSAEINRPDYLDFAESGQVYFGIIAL
Experiment: TNF-Induced HEK-Blue Assay
Type: cell-based
[1] = HEK-Blue-CD40L cells, NF-kB-driven secreted alkaline phosphatase reporter, TNFα 0.5 ng/ml, 18 h, read-out: TNF induced HEK-Blue assay IC50 value

Row | IC50 [1] [nM] | SMILES | IC50 [nM]
1 | 50 to 200 | CC(=O)Nc1ccc(-c2ccc(C[C@@H]3NC(=O)[C@H](Cc4ccc(-c5ccccc5)cc4)NC(=O)[C@H](CC4CCCCC4)NC(=O)CSC[C@@H](C(=O)NCC(N)=O)NC(=O)[C@H](CC(C)C)NC(=O)[C@H](Cc4cccc(C(N)=O)c4)NC(=O)[C@H](C(C)C)NC(=O)[C@@H]4CCCN4C(=O)[C@H](C(C)C)NC(=O)[C@@H](CCCNC(=N)N)NC(=O)[C@H](CC(=O)O)NC(=O)[C@@H]4CCCN4C(=O)CN(C)C3=O)cc2)cc1 [Example 240] ({CH2CO}-[Cha][Bip][Bip(4'-NHAc)][Sar]PD[dR]VPV[Phe(3-CONH2)]LCG-NH2; thioether N-13) | –
2 | – | CC(C)C[C@@H]1NC(=O)[C@H](Cc2ccccn2)NC(=O)[C@H](C(C)C)NC(=O)[C@@H]2CCCN2C(=O)[C@H](C(C)C)NC(=O)[C@@H](CCCNC(=N)N)NC(=O)[C@H](CC(=O)O)NC(=O)[C@H](Cc2ccc(O)cc2)NC(=O)CN(C)C(=O)[C@H](Cc2ccc(-c3ccc(NC(=O)c4nn(CC(=O)O)c5ccccc45)cc3)cc2)NC(=O)[C@H](Cc2ccc(-c3ccc(C(=O)O)cc3)cc2)NC(=O)[C@H](CC2CCCCC2)NC(=O)CSC[C@@H](C(=O)NCC(N)=O)NC1=O [Example 362] ({CH2CO}-[Cha][Bip(4'-COOH)][Bip(4'-NH)](Indazole3carbonyl(1-CH2COOH))[Sar]YD[dR]VPV[2Pal]LCG-NH2; thioether N-13) | < 50
3 | 50 to 200 | CC(C)C[C@@H]1NC(=O)[C@H](CCCNC(=N)N)NC(=O)[C@H](C(C)C)NC(=O)[C@@H]2CCCN2C(=O)[C@H](Cc2cccnc2)NC(=O)[C@H](CCCNC(=N)N)NC(=O)[C@H](CC(=O)O)NC(=O)[C@@H]2CCCN2C(=O)CN(C)C(=O)[C@H](Cc2ccc(-c3ccccc3)cc2)NC(=O)[C@H](Cc2ccc(-c3ccccc3)cc2)NC(=O)[C@H](CN2CCOCC2)NC(=O)CSC[C@@H](C(=O)NCC(N)=O)NC1=O [Example 54] ({CH2CO}-[Ala(morpholin-4-yl)][Bip][Bip][Sar]PDR[3Pal]PVRLCG-NH2; thioether N-13) | –
4 | – | CC[C@H](C)[C@@H]1NC(=O)[C@@H](CCCNC(=N)N)NC(=O)[C@H](CC(=O)O)NC(=O)[C@H](Cc2cnc[nH]2)NC(=O)CN(C)C(=O)[C@H](Cc2ccc(-c3ccc(NC(=O)c4ccccc4)cc3)cc2)NC(=O)[C@H](Cc2ccc(-c3ccc(C(=O)O)cc3)cc2)NC(=O)[C@H](CC2CCCCC2)NC(=O)CSC[C@@H](C(=O)NCC(N)=O)NC(=O)[C@H](CC(C)C)NC(=O)[C@H](Cc2cnc[nH]2)NC(=O)[C@H](C(C)C)NC(=O)[C@@H]2c3ccccc3CCN2C1=O [Example 373] ({CH2CO}-[Cha][Bip(4'-COOH)][Bip(4'-NHBz)][Sar]HD[dR]I[Tiq1c(1S)]VHLCG-NH2; thioether N-13) | < 50
5 | 200 to 2000 | CC(C)C[C@@H]1NC(=O)[C@H](CCCNC(=N)N)NC(=O)[C@H](C(C)C)NC(=O)[C@@H]2CCCN2C(=O)[C@H](C(C)C)NC(=O)[C@@H](CCCNC(=N)N)NC(=O)[C@H](CC(=O)O)NC(=O)[C@@H]2CCCN2C(=O)CN(C)C(=O)[C@H](Cc2ccc(-c3cccc(OC(=O)c4csc(-c5ccncc5)n4)c3)cc2)NC(=O)[C@H](Cc2ccc(-c3ccccc3)cc2)NC(=O)[C@H](CN2CCOCC2)NC(=O)CSC[C@@H](C(=O)NCC(N)=O)NC1=O [Example 332] ({CH2CO}-[Ala(morpholin-4-yl)][Bip][X84][Sar]PD[dR]VPVRLCG-NH2; thioether N-13) | –
6 | – | CC(C)C[C@@H]1NC(=O)[C@H](CCCNC(=N)N)NC(=O)[C@H](C(C)C)NC(=O)[C@@H]2CCCN2C(=O)[C@H](C(C)C)NC(=O)[C@@H](CCCNC(=N)NCCc2ccc(N)cc2)NC(=O)[C@H](CC(=O)O)NC(=O)[C@@H]2CCCN2C(=O)CN(C)C(=O)[C@H](Cc2ccc(-c3ccc(NC(=O)c4nn(CC(=O)O)c5ccccc45)cc3)cc2)NC(=O)[C@H](Cc2ccc(-c3ccccc3)cc2)NC(=O)[C@H](CN2CCOCC2)NC(=O)CSC[C@@H](C(=O)NCC(N)=O)NC1=O [Example 407] ({CH2CO}-[Ala(morpholin-4-yl)][Bip][Bip(4'-NH)](Indazole3carbonyl(1-CH2COOH))[Sar]PD[X35]VPVRLCG-NH2; thioether N-13) | 50 to 200
7 | – | CC(C)C[C@@H]1NC(=O)[C@H](CCCNC(=N)N)NC(=O)[C@H](C(C)C)NC(=O)[C@@H]2CCCN2C(=O)[C@H](C(C)C)NC(=O)[C@@H](CCCNC(=N)NCc2cccc(-n3ccnc3)c2)NC(=O)[C@H](CC(=O)O)NC(=O)[C@@H]2CCCN2C(=O)CN(C)C(=O)[C@H](Cc2ccc(-c3ccc(NC(=O)c4nn(CC(=O)O)c5ccccc45)cc3)cc2)NC(=O)[C@H](Cc2ccc(-c3ccccc3)cc2)NC(=O)[C@H](CN2CCOCC2)NC(=O)CSC[C@@H](C(=O)NCC(N)=O)NC1=O [Example 470] ({CH2CO}-[Ala(morpholin-4-yl)][Bip][Bip(4'-NH)](Indazole3carbonyl(1-CH2COOH))[Sar]PD[X54]VPVRLCG-NH2; thioether N-13) | < 50
